{
  "source": "ChEMBL document CHEMBL3045274",
  "about": "“Xyloccensins QV, six new 8,9,30-phragmalin ortho ester antifeedants from the Chinese mangrove Xylocarpus granatum” (Tetrahedron, 2005)",
  "note": "Active and inactive are the calls of the source. The calls are words filed in the database; no cut-off is given here.",
  "data": [
    {"tested_on": "Mythimna separata", "assay": "Antifeedant activity against third instar larvae of Mythimna separata (Oriental armyworm) in compound treated leaf disk at 500 ppm", "assay_type": "functional, organism-based", "values": [
      {"compound": "COC(=O)[C@@H](O)[C@@H]1[C@@]2(C)C[C@@]3(O)[C@@](OC(C)=O)([C@@H]2OC(C)=O)[C@@H]2O[C@]4(C)O[C@]5(C[C@@H](OC(C)=O)[C@@]6(C)C(=CC(=O)O[C@@H]6c6ccoc6)[C@]25O4)[C@@]13C", "Activity": "inactive"},
      {"compound": "COC(=O)[C@@H](O)[C@@H]1[C@@]2(C)C[C@@]3(O)[C@H]([C@H]4O[C@]5(C)O[C@]6(C[C@@H](OC(C)=O)[C@@]7(C)C(=CC(=O)O[C@@H]7c7ccoc7)[C@]46O5)[C@@]13C)[C@@H]2OC(C)=O", "Activity": "inactive"},
      {"compound": "COC(=O)[C@@H](OC(C)=O)[C@@H]1[C@@]2(C)C[C@@]3(O)[C@@](O)([C@@H]2OC(C)=O)[C@@H]2O[C@]4(C)O[C@]5(C[C@@H](OC(C)=O)[C@@]6(C)C(=CC(=O)O[C@@H]6c6ccoc6)[C@]25O4)[C@@]13C", "Activity": "Active"},
      {"compound": "COC(=O)[C@H](OC(C)=O)[C@H]1[C@]2(C)C[C@]3(O)[C@@](OC(C)=O)([C@H]4O[C@@]5(C)O[C@@]6(CC[C@@]7(C)[C@H](c8ccoc8)OC(=O)C[C@@]7(O)[C@@]46O5)[C@]13C)[C@H]2OC(C)=O", "Activity": "Active"},
      {"compound": "COC(=O)C[C@@H]1[C@@]2(C)C[C@@]3(O)[C@@](OC(C)=O)([C@@H]2OC(C)=O)[C@@H]2O[C@]4(C)O[C@]5(C[C@@H](OC(C)=O)[C@@]6(C)C(=CC(=O)O[C@@H]6c6ccoc6)[C@]25O4)[C@@]13C", "Activity": "inactive"},
      {"compound": "COC(=O)[C@H](OC(C)=O)[C@H]1[C@]2(C)C[C@]3(O)[C@H]([C@H]2OC(C)=O)[C@H]2O[C@@]4(C)O[C@@]5(CC[C@@]6(C)[C@H](c7ccoc7)OC(=O)C[C@@]6(O)[C@@]25O4)[C@]13C", "Activity": "inactive"},
      {"compound": "COC(=O)[C@@H](O)[C@@H]1[C@@]2(C)C[C@@]3(O)[C@@](O)([C@@H]2OC(C)=O)[C@@H]2O[C@]4(C)O[C@]5(C[C@@H](OC(C)=O)[C@@]6(C)C(=CC(=O)O[C@@H]6c6ccoc6)[C@]25O4)[C@@]13C", "Activity": "inactive"},
      {"compound": "COC(=O)C[C@@H]1[C@@]2(C)C[C@@]3(O)[C@@](O)([C@@H]2OC(C)=O)[C@@H]2O[C@]4(C)O[C@]5(C[C@@H](OC(C)=O)[C@@]6(C)C(=CC(=O)O[C@@H]6c6ccoc6)[C@]25O4)[C@@]13C", "Activity": "inactive"}
    ]}
  ]
}
